Assay results taken from ChEMBL document CHEMBL5214954, “Identification of PI3K/HDAC Dual-targeted inhibitors with subtype selectivity as potential therapeutic agents against solid Tumors: Building HDAC6 potency in a Quinazolinone-based PI3Kδ-selective template” (Bioorg Med Chem, 2022).

How the values were obtained:
[1] = target: T1, Phosphatidylinositol 4,5-bisphosphate 3-kinase catalytic subunit delta isoform (Homo sapiens, UniProt O00329); assay: Inhibition of PI3Kdelta (unknown origin) measured by ADP-Glo assay
T1 sequence (O00329 whole entry): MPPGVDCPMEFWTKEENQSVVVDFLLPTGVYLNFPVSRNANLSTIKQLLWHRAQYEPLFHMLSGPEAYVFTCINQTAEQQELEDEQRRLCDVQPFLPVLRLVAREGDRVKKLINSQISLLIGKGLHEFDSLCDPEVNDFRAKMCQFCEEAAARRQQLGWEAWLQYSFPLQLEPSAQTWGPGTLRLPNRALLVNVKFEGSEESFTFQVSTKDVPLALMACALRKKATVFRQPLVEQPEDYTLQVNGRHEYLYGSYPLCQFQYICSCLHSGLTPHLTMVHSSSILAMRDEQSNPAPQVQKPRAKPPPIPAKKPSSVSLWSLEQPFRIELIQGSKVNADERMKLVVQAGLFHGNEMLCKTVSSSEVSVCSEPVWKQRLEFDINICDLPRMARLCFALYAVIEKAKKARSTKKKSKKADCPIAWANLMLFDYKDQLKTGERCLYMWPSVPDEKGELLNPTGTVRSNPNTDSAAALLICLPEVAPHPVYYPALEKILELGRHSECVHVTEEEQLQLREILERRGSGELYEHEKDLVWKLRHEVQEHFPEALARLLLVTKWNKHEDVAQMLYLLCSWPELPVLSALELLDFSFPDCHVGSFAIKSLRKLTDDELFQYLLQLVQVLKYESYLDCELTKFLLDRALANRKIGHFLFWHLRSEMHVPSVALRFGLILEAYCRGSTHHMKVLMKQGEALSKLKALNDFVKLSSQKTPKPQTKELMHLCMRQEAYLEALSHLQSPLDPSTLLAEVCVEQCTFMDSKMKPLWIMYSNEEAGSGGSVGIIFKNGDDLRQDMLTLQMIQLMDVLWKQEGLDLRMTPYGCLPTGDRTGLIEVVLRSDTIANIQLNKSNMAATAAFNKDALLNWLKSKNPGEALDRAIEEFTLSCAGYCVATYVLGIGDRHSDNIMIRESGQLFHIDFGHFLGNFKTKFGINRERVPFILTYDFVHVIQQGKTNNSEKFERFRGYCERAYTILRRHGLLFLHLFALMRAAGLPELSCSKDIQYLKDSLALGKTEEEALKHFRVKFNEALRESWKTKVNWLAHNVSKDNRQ

T47D = assay: Downregulation of PD-L1 expression in human T47D cells at 10 to 1000 nM measured by western blot analysis; type: functional, cell-based; details: dose 10-1000 nM, DDE = dose-dependent effect
[2] = Apparent volume of distribution in male Sprague-Dawley rat at 2 mg/kg, iv measured upto 24 hrs by LC-MS/MS analysis; type: ADME, organism-based; details: in vivo, read-out: Vz

IC50 [1]: 2.3 nM | Vd [2]: 2.09 L/kg
SMILES: N#Cc1c(N)nc(N)nc1N1CC2(CC2)C[C@H]1c1nc2cccc(Cl)c2c(=O)n1Cc1ccc(C(=O)NO)s1
Activity (T47D): Dde
